Measured values taken from paper PMC5636194 (Journal of nanomedicine & nanotechnology, 2017).

Columns and labels:
[1] = test system: T98G cells; experiment: Cell viability (calcein AM); assay type: cell-based; conditions: 10 µM
Procedure: (§1) U87 and T98G cells were seeded at 750 cells/well in 100 µL DMEM high glucose with pyruvate (10% FBS and 1% Pen/Strep) in a black, 96-well flat-bottomed plate, and allowed to attached overnight. […] The next morning, the plates were washed with 200 µL/well 1X PBS, which was removed and replaced with 95 µL calcein AM reagent at 1:1000 dilution in 1X PBS.

[2] = test system: U87 cells; experiment: Cell viability (calcein AM); assay type: cell-based
Procedure: as §1

[3] = test system: U87 cells; experiment: ATP quantification (luciferase luminescence); assay type: cell-based; conditions: 10 µM, 24 hours
Procedure: U87 and T98G cells were seeded into 6-well plates at 200,000 cells/well in 1 mL DMEM high glucose with pyruvate (10% FBS and 1% Pen/Strep) and allowed to grow overnight. […] Following a modified protocol outlined in an ATP kit obtained from Life Technologies, cells were washed twice with PBS, then lysed with 150 uL of ATP assay buffer (500 mM Tricine buffer, pH 7.8, 100 mM MgSO4, 2 mM EDTA, and 2 mM sodium azide) containing 1% Triton X-100, dislodged by scraping with a pipette tip, and transferred to 1.5 mL Eppendorf tubes on ice for 5 minutes. 10 uL of cell lysate was then added in triplicate to a white 96-well plate, also containing ATP standards. Before reading the plate, 100 uL of ATP assay buffer containing 90 µg/mL D-luciferin, 20 µM DTT, and 25 µg/mL Luciferase) was added to each well. Luminescence was calculated using a Tecan Infinite F200 plate reader. Protein concentration was also determined using the Pierce 660 nm Protein Assay (660 nm absorbance), with ATP production standardized to protein values.

[4] = test system: T98G cells; experiment: Liquid colony formation assay (4 weeks); assay type: cell-based; conditions: 10 µM
Procedure: (§2) Cells were seeded into 6-well culture plates (Falcon) at a concentration of 50 cells/well in 1 mL DMEM high glucose with pyruvate (Gibco), 10% FBS, and 1% Pen/Strep. Treatments were added to each well to obtain a pre-determined final concentration in 2 mL/well total volume. Plates were incubated for 4 weeks undisturbed, and only carefully received a media change at week 3 with or without drug treatments if colonies were not visible. Following completion of the 4-week incubation period, colonies were stained as previously described. […] Stained colonies were counted, with the number and size documented.

[5] = test system: U87 cells; experiment: Liquid colony formation assay (4 weeks); assay type: cell-based; conditions: 10 µM
Procedure: as §2

[6] = test system: T98G cells; experiment: Glucose quantification in medium; assay type: cell-based; conditions: 10 µM, 48 and 72 hours
Procedure: Glucose was measured per instructions from a kit manufactured by Sigma-Aldrich. Briefly, 200,000 U87 and T98G cells were seeded into a 6-well plate and incubated overnight. […] After designated times, medium was removed, diluted 1:100 in glucose assay buffer (glucose oxidase, horseradish peroxidase, and O-dianisidine), then added to a 96-well plate at a 1:3 dilution in glucose assay buffer. The plate was then incubated at 37°C and 5% CO2 for 30 minutes, and the reactions halted by the addition of 66 uL of 12 N sulfuric acid. Absorbance values were evaluated at 540 nm on a Biotek Synergy 2 plate reader.

[7] = test system: T98G cells; experiment: Cellular bioenergetics analysis (Seahorse XF24 oxygen consumption); assay type: cell-based
Procedure: (§3) Assay was performed according to manufacturer’s directions and as previously described, where U87 and T98G cells were plated at 30,000 cells/well in an XF24 plate and allowed to attach overnight. Media was replaced an hour before onset of the assay with XF24 media, and then, rotenone/antimycin A mix, FCCP, and oligomycin were diluted in XF24 media and loaded into the provided cartridge to obtain final concentrations of 100 nM, 300 nM, and 1 µg/mL, respectively. […] Addition of the compounds into the medium took place at designated time points, and oxygen consumption was examined using a Seahorse Bioscience XF24 Extracellular Flux Analyzer.

[8] = test system: U87 cells; experiment: as above; assay type: cell-based
Procedure: as §3

[9] = In vivo bio-distribution (LC-MS/MS, noncompartmental PK); design: species or system mice (CD-1); conditions: female, mouse; CD-1 mice, single IV dose 8 mg/kg, plasma
Procedure: Female mice (CD-1 background, 5–6 weeks old) were used for all bio-distribution studies. […] Plasma was processed from whole blood by centrifugation of EDTA-treated blood for 10 minutes at 9,600g, then stored at −80°C until analyzed. In addition, kidneys, spleen, lung, liver, and brain were removed, weighed; flash frozen, then homogenized in a 3-fold volume of PBS for further analysis and stored at −80°C. […] Next, 100 µL of each sample (plasma or tissue homogenate) was crashed with 200 µL methanol+0.1% formic acid+50 ng/mL (final concentration) n-benzyl benzamide internal standard, vortexed for 15 seconds, incubated at room temperature for 10 minutes, then centrifuged at 16,000g for 5 minutes at 4°C. 250 µL of supernatant was then transferred to an Eppendorf tube, centrifuged as previously described, then 195 µL of supernatant transferred to an HPLC vial with insert for analysis by HPLC-MS/MS (AB Sciex 3200 QTrap). […] The limit of detection (LOD) was set at the standard concentration providing an analyte signal three-fold above blank matrix. […] Per UTSW’s lab SOPs, samples falling below LOQ and above LOD are assigned a value of ½LOQ. Samples falling below LOQ and LOD are assigned a value of 0.

With `CN(C)c1ccc2nc3ccc(=[N+](C)C)cc-3sc2c1` [MB, methylene blue] the “Initial reduction in cell viability” value ([1]; 24 and 72 hours) was 25%, the “Additional reduction in cell viability” value ([1]; through […]) was ~ 50% and the “Cell viability over time course” value ([2]; 10 µM, 24, 72 and […]) was “did not induce cell death until 72 and 144 hours”. The Cell viability ([2]; 10 µM, 24-hour treatment) was “increase in cell viability”, the “ATP levels compared to control” value [3] was “increased” and the “Average colony size compared to control” value [4] was “significantly reduced”. The “Average number of colonies” value [4] was “significantly reduced”, the “Average colony size compared to control” value [5] was “significantly reduced” and the “Average number of colonies” value [5] was “reduced”. The “Sample glucose compared to untreated cells” value [6] was “significant increases”, the “Increase in OCR” value ([7]; 10 µM) was 1.5 fold and the “Oxygen consumption rate (OCR)” value ([7]; 1 and 10 µM) was “significantly increased”. The “Oxygen consumption rate (OCR)” value ([8]; 10 µM) was “significant increase”, the “Oxygen consumption rate (OCR)” value ([8]; lower treatment concentration (1 µM)) was “not seen” and the AUC [9] was 2130 ng·h/mL.
